From US8530680B2, “System and method for controlling growth of microorganisms with brominated furanones” (Syracuse University, priority 2008, dated 2013) come the findings set out here.

The subject of assay [1] is orf19.2175 (CPD1) expression in C. albicans. Nature of the assay: RNA dot blotting of C. albicans genes after BF1 treatment. The assay is classed as cell-based, Candida albicans. As to conditions: 3 μg/mL BF1. As to the method: To corroborate the microarray results, four genes were checked with RNA dot blotting for their expression levels under the same conditions tested in microarray analysis: orf19.5604 (MDR1), orf19.2175 (CPD1), orf19.2896 (SOU1) and orf19.5565. The total RNA of a control sample without furanone was used to synthesize complementary DNA (cDNA) using OneStep RT-PCR Kit (QIAGEN Inc.) by following the manufacture's protocol. The annealing temperature was optimized based on the primers and was performed at 50° C. for 1 minute in each cycle. The length of the template cDNA was 457 bp, 364 bp, 455 bp and 423 bp for orf19.5604 (MDR1), orf19.2175 (CPD1), orf19.2896 (SOU1) and orf19.5565, respectively.
The DNA probes labeled with Digoxigenin (DIG)-dUTP were then generated using the same primer sets and PCR DIG Probe Synthesis Kit (Roche® Applied Science, Mannheim, Germany) by following the manufacture's protocol except that the annealing temperature was 48° C. for orf19.2175 and orf19.5565, and 51° C. for orf19.2896 and orf19.5604. Total RNA was isolated from cultures treated under the same conditions as in DNA microarray experiments. […] The light signal was recorded using Biomax X-ray films from Kodak (Rochester, N.Y.). […]

Assay [2] has as its system C. albicans strain SC5341 gene expression. Nature of the assay: DNA microarray gene expression of C. albicans after BF1 treatment. The assay is classed as cell-based, Candida albicans. As to conditions: for Induction expression ratio: 3 μg/mL BF1, 45 minutes. As to the method:
An overnight culture of C. albicans strain SC5341 grown in SD medium was sub-cultured in 25 mL of the same medium to an initial OD600 of 0.005 and grown till the OD600 was 1.0. The culture was diluted using fresh SD medium to a volume of 100 mL with an initial OD600 of 0.6, and it was grown till the OD600 reached 1.0, which took approximately 2 hours. Then the culture was split into two equal portions, with 3 μg/mL of BF1 added to the first one and the same amount of ethanol added to the second one to eliminate the effects of ethanol. […] Forty-five minutes after BF1 addition, the cells were harvested by centrifugation at 13,200 rpm at 4° C. for 30 sec and stored at −80° C. until RNA isolation. To lyse the cells, 1.5 mL of Trizol reagent (Invitrogen® Co., Carlsbad, Calif.) and 0.5 mL of 0.5 mm glass beads were added to the frozen tubes containing C. albicans cell pellets. The tubes were closed tightly and beaten for 30 sec at 4,800 oscillations/minute using a mini bead beater (Biospec Products Inc., Bartlesville, Okla.). The total RNA was extracted using Trizol reagent by following the manufacture's protocol. The extracted RNA was further cleaned up using an RNeasy mini-kit (QIAGEN® Inc., Valencia, Calif.), including on-column DNA digestion with RNase-free DNase I. The RNA yield was quantified by OD260 reading, and the RNA integrity was checked, using agarose gel electrophoresis. The RNA samples were sent to the DNA MicroArray Lab at the Biotechnology Research Institute, National Research Council of Canada (Montreal, Canada) to further check the integrity and DNA microarray hybridization. RNA from a control sample and that from a furanone-treated sample were hybridized to each array. A total of four DNA microarrays were used and four biological replicates were tested. The data were analyzed using Genespring GX version 7.3 (Agilent Technologies®, Santa Clara Calif.). […] Gene functions were annotated by searching the Candida Genome Database at (www.candidagenome.org).

The next assay concerns C. albicans. As to the kind of experiment: C. albicans specific growth rate in a shake flask (data not shown). As to conditions: 3 μg/mL, after 3 hours of treatment. The format is cell-based, Candida albicans.
For another assay, the system named is E. coli. As to the kind of experiment: E. coli growth inhibition (results not shown). The assay is classed as cell-based. As to conditions: at / up to 60 μg/mL.

As for `CCCCC1=C(Br)/C(=C/Br)OC1=O` [BF1, 4-bromo-5Z-(bromomethylene)-3-butylfuran-2-one], the “induction of gene CPD1 in RNA dot blotting” value in assay [1] turned out to be 10 fold. In addition, the Induction expression ratio amounted to 3.17 in assay [2] (orf19.113 CIP1); 1.65 in assay [2] (orf19.1167); 1.87 in assay [2] (orf19.1237 ARO9); 13.87 in assay [2] (orf19.125 EBP1); 1.97 in assay [2] (orf19.1286); 1.58 in assay [2] (orf19.1421 DAL3). In addition, the Induction expression ratio in assay [2] (orf19.1783 YOR1) is recorded as 1.78; in assay [2] (orf19.2175) it was 10.94; in assay [2] (orf19.2262), 2.68; in assay [2] (orf19.23 RTA3) it was 5.01; in assay [2] (orf19.2396 IFR2), 2.05; in assay [2] (orf19.2693), 3.97. Also, the Induction expression ratio is listed as 1.69 in assay [2] (orf19.2825 DRE2); 12.89 in assay [2] (orf19.3131 OYE32); 8.82 in assay [2] (orf19.3139); 14.98 in assay [2] (orf19.320); 4.00 in assay [2] (orf19.3234 OYE22); 1.72 in assay [2] (orf19.3340 SOD2). For the same compound, the Induction expression ratio in assay [2] (orf19.3433 OYE23) is listed as 20.04; in assay [2] (orf19.3443 OYE2), 3.30; in assay [2] (orf19.3707 YHB1) it was 2.65; in assay [2] (orf19.4940 HIP1), 2.57; in assay [2] (orf19.5059 GCS1), 1.96; in assay [2] (orf19.5604 MDR1) it was 5.36. Further, the Induction expression ratio in assay [2] (orf19.5992 WOR2) was found to be 1.54; in assay [2] (orf19.6059 TTR2), 1.80; in assay [2] (orf19.6275), 1.94; in assay [2] (orf19.6869), 4.21; in assay [2] (orf19.7306), 2.87; in assay [2] (orf19.7531), 2.53. For the same compound, the Induction expression ratio is on record as 1.54 in assay [2] (orf19.896 CHK1); 1.53 in assay [2] (orf19.93); 0.42 in assay [2] (repressed gene orf19.1097 ALS4); 0.60 in assay [2] (repressed gene orf19.1344); 0.47 in assay [2] (repressed gene orf19.270); 0.60 in assay [2] (repressed gene orf19.2896 SOU1). Besides, the Induction expression ratio is on record as 0.64 in assay [2] (repressed gene orf19.2959.1); 0.57 in assay [2] (repressed gene orf19.3066 ENG1); 0.66 in assay [2] (repressed gene orf19.3629 DSE1); 0.60 in assay [2] (repressed gene orf19.3794 CSR1); 0.65 in assay [2] (repressed gene orf19.4337 ESBP6); 0.60 in assay [2] (repressed gene orf19.4737 TPO3). Besides, the Induction expression ratio in assay [2] (repressed gene orf19.5170 ENA21) worked out at 0.61; in assay [2] (repressed gene orf19.5193 FMA1), 0.61; in assay [2] (repressed gene orf19.5267), 0.56; in assay [2] (repressed gene orf19.5565) it was 0.43; in assay [2] (repressed gene orf19.6073 HMX1), 0.59; in assay [2] (repressed gene orf19.6077) it was 0.51. For the same compound, the Induction expression ratio in assay [2] (repressed gene orf19.6245) is reported as 0.67; in assay [2] (repressed gene orf19.716), 0.51; in assay [2] (repressed gene orf19.742 ALD6), 0.33; in assay [2] (repressed gene orf19.7502), 0.67; in assay [2] (repressed gene orf19.7586 CHT3), 0.66. Besides, the “induction of gene CPD1 in DNA microarray” value in assay [2] (orf19.2175 (CPD1), 3 μg/mL BF1) is recorded as 12.94 fold. In the assay on C. albicans, the “reduction of specific growth rate” value is “approximately 50%”.
On to `CC1=C(Br)/C(=C/Br)OC1=O` [BF8, 4-bromo-5Z-(bromomethylene)-3-methylfuran-2-one], for which the “growth inhibition of E. coli” value in the assay with E. coli is “did not inhibit”.
On the same count and under the same terms, with `CC1=CC(=C(Br)Br)OC1=O` [BF9, 5-(dibromomethylene)-3-methylfuran-2-one] the entry was “does not inhibit”.
